The structures appear in SMILES notation.

The assay concerns the target human recombinant LANCL1 (hLANCL1) (Homo sapiens, UniProt O43813). The experiment in a line: [3H]ABA equilibrium saturation binding, nitrocellulose filtration.

Sequence of human recombinant LANCL1 (hLANCL1) (O43813 whole entry): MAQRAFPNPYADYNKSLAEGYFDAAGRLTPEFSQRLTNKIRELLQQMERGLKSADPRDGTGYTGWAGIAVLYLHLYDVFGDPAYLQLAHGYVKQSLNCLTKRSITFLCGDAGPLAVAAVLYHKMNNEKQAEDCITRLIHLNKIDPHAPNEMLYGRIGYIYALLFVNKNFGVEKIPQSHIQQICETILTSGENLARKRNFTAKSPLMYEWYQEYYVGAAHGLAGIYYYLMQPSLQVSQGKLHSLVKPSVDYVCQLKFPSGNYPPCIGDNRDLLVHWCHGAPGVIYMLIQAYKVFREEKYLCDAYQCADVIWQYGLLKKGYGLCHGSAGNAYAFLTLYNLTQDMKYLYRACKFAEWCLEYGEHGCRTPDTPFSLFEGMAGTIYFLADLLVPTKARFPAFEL

`CC1=CC(=O)CC(C)(C)C1(O)/C=C/C(C)=C\C(=O)O` (racemic) [ABA, (±)-ABA]: the Kd stood at 1000 ± 400 nM.

What is called Kd is the constant that tells how readily two partners part at equilibrium.

The values are drawn from paper PMC8237609 (Molecular Metabolism, 2021).
